Measurements as given in the supplement of paper PMC11061612.

What was measured:
[1] = system: PANC-10-05 (Pancreatic Carcinoma); experiment: combination Emax (second highest fraction inhibited in the dose matrix, 72 h); higher = more inhibition; extreme values may be limits of the assay
How it was run: (§1)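 After 24 hours at 37°C and 5% CO2 in 1536-well plates, cells in DMEM/F12 or RPMI plus 10% FBS received two-drug dose matrices for 72 hours. Viability came from CellTiter-Glo 2.0 luminescence and was scaled as inhibition, anchored at 0 by vehicle wells and at 1 by blank wells. Combination Emax is taken as the second-highest inhibition in the matrix, and Bliss excess as the observed combination effect less EA + EB − EA·EB, with EA and EB the single-agent effects.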

[2] = system: TT (Thyroid Gland Carcinoma); experiment: as above
How it was run: as §1

[3] = system: KARPAS-422 (B-Cell Non-Hodgkin's Lymphoma); experiment: as above
How it was run: as §1

[4] = system: NCI-H1666 (Lung Adenocarcinoma); experiment: as above
How it was run: as §1

U-2-OS (Osteosarcoma) [5] = experiment: as above
How it was run: as §1

[6] = system: CAPAN-2 (Pancreatic Carcinoma); experiment: as above
How it was run: as §1

NY (Osteosarcoma) [7] = experiment: as above
How it was run: as §1

[8] = system: CCK-81 (Colorectal Carcinoma); experiment: as above
How it was run: as §1

[9] = system: COLO-320-HSR (Colorectal Carcinoma); experiment: as above
How it was run: as §1

[10] = system: NCI-H1581 (Non-Small Cell Lung Carcinoma); experiment: as above
How it was run: as §1

[11] = system: VCaP (Prostate Carcinoma); experiment: as above
How it was run: as §1

[12] = system: NCI-H2066 (Squamous Cell Lung Carcinoma); experiment: as above
How it was run: as §1

FU97 (Gastric Carcinoma) [13] = experiment: as above
How it was run: as §1

[14] = system: BICR22 (Oral Cavity Carcinoma); experiment: as above
How it was run: as §1

[15] = system: NCI-H64 (Small Cell Lung Carcinoma); experiment: as above
How it was run: as §1

[16] = system: ONS-76 (Other Solid Carcinomas); experiment: as above
How it was run: as §1

IGR-37 (Melanoma) [17] = experiment: as above
How it was run: as §1

[18] = system: ECC10 (Gastric Carcinoma); experiment: as above
How it was run: as §1

[19] = system: PANC-10-05 (Pancreatic Carcinoma); experiment: Bliss excess, mean over the matrix (fraction); higher = more synergy
How it was run: as §1

[20] = system: TT (Thyroid Gland Carcinoma); experiment: as above
How it was run: as §1

[21] = system: KARPAS-422 (B-Cell Non-Hodgkin's Lymphoma); experiment: as above
How it was run: as §1

[22] = system: NCI-H1666 (Lung Adenocarcinoma); experiment: as above
How it was run: as §1

U-2-OS (Osteosarcoma) [23] = experiment: as above
How it was run: as §1

[24] = system: CAPAN-2 (Pancreatic Carcinoma); experiment: as above
How it was run: as §1

NY (Osteosarcoma) [25] = experiment: as above
How it was run: as §1

[26] = system: CCK-81 (Colorectal Carcinoma); experiment: as above
How it was run: as §1

[27] = system: COLO-320-HSR (Colorectal Carcinoma); experiment: as above
How it was run: as §1

[28] = system: NCI-H1581 (Non-Small Cell Lung Carcinoma); experiment: as above
How it was run: as §1

[29] = system: VCaP (Prostate Carcinoma); experiment: as above
How it was run: as §1

[30] = system: NCI-H2066 (Squamous Cell Lung Carcinoma); experiment: as above
How it was run: as §1

FU97 (Gastric Carcinoma) [31] = experiment: as above
How it was run: as §1

[32] = system: BICR22 (Oral Cavity Carcinoma); experiment: as above
How it was run: as §1

[33] = system: NCI-H64 (Small Cell Lung Carcinoma); experiment: as above
How it was run: as §1

[34] = system: ONS-76 (Other Solid Carcinomas); experiment: as above
How it was run: as §1

IGR-37 (Melanoma) [35] = experiment: as above
How it was run: as §1

[36] = system: ECC10 (Gastric Carcinoma); experiment: as above
How it was run: as §1
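For Bliss excess, mean over the matrix in this document: after 72 h of two-drug dosing.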

Row | Compound | combination Emax [1] | combination Emax [2] | combination Emax [3] | combination Emax [4] | combination Emax (U-2-OS (Osteosarcoma) [5]) | combination Emax [6] | combination Emax (NY (Osteosarcoma) [7]) | combination Emax [8] | combination Emax [9] | combination Emax [10] | combination Emax [11] | combination Emax [12] | combination Emax (FU97 (Gastric Carcinoma) [13]) | combination Emax [14] | combination Emax [15] | combination Emax [16] | combination Emax (IGR-37 (Melanoma) [17]) | combination Emax [18] | Bliss excess [19] | Bliss excess [20] | Bliss excess [21] | Bliss excess [22] | Bliss excess (U-2-OS (Osteosarcoma) [23]) | Bliss excess [24] | Bliss excess (NY (Osteosarcoma) [25]) | Bliss excess [26] | Bliss excess [27] | Bliss excess [28] | Bliss excess [29] | Bliss excess [30] | Bliss excess (FU97 (Gastric Carcinoma) [31]) | Bliss excess [32] | Bliss excess [33] | Bliss excess [34] | Bliss excess (IGR-37 (Melanoma) [35]) | Bliss excess [36]
1 | Cc1c2c(nn1C)CSCc1cc(n(C)n1)CSc1cc(c3ccccc3c1)OCCCc1c(C(=O)O)n(C)c3c-2c(Cl)ccc13 [AZD5991] + CC(=O)O[C@H]1C(=O)[C@@]2(C)[C@H]([C@H](OC(=O)c3ccccc3)[C@]3(O)C[C@H](OC(=O)[C@H](O)[C@@H](NC(=O)c4ccccc4)c4ccccc4)C(C)=C1C3(C)C)[C@]1(OC(C)=O)CO[C@@H]1C[C@@H]2O [Paclitaxel] (first compound max 1 µM, 7x7, partner max 3 µM) | 0.569 | 0.26 | 0.996 | 0.563 | 0.735 | 0.144 | 0.963 | 0.989 | 0.991 | 1 | 0.977 | 0.589 | 0.257 | 0.98 | 0.719 | 0.644 | 0.885 | 0.942 | 0.0368 | -0.0423 | 0.0084 | -0.0239 | -0.0291 | 0.0086 | 0.0268 | -0.0396 | -0.0443 | 0.0114 | 0.0074 | -0.027 | -0.0142 | 0.0021 | 0.0573 | -0.0383 | 0.0439 | -0.0567
2 | C[C@@H](Nc1cc(F)cc(F)c1)c1cc(C(=O)N(C)C)cc2c(=O)cc(N3CCOCC3)oc12 [AZD8186] + CC(=O)c1c(C)c2cnc(Nc3ccc(N4CCNCC4)cn3)nc2n(C2CCCC2)c1=O [Palbociclib] (first compound max 10 µM, 7x7, partner max 10 µM) | 0.383 | 0.416 | 0.707 | 0.454 | 0.391 | 0.213 | 0.408 | 0.418 | 0.382 | 0.651 | 0.371 | 0.319 | 0.386 | 0.192 | 0.469 | 0.424 | 0.464 | 0.661 | -0.0689 | 0.0582 | 0.018 | -0.0433 | 0.0498 | 0.0182 | 0.0895 | 0.0824 | 0.0312 | 0.085 | 0.0706 | -0.0299 | 0.0755 | -0.0275 | 0.0127 | 0.0763 | 0.0795 | 0.08
3 | C[C@@H](Oc1cc(-c2cnn(C3CCNCC3)c2)cnc1N)c1c(Cl)ccc(F)c1Cl [Crizotinib] + CC1=C(C(=CC=C1)Cl)NC(=O)C2=CN=C(S2)NC3=CC(=NC(=N3)C)N4CCN(CC4)CCO [Dasatinib] (first compound max 10 µM, 7x7, partner max 2 µM) | 0.813 | 0.274 | 0.886 | 0.807 | 0.617 | 0.78 | 0.519 | 0.892 | 0.699 | 0.359 | 0.587 | 0.587 | 0.446 | 0.89 | 0.594 | 0.894 | 0.645 | 0.679 | 0.0003 | -0.0751 | 0.0411 | -0.0103 | 0.0199 | 0.0443 | 0.0882 | 0.0191 | -0.0425 | -0.0363 | -0.0665 | -0.0202 | -0.0237 | 0.0433 | -0.0238 | 0.0996 | -0.0317 | -0.0263
4 | CN(CCO)CC[C@H](CSc1ccccc1)Nc1ccc(S(=O)(=O)NC(=O)c2ccc(N3CCC([C@@H](O)c4ccccc4-c4ccc(Cl)cc4)CC3)cc2)cc1S(=O)(=O)C(F)(F)F [AZD4320] + CS(=O)(=O)CCNCc1ccc(-c2ccc3ncnc(Nc4ccc(OCc5cccc(F)c5)c(Cl)c4)c3c2)o1 [Lapatinib] (first compound max 1 µM, 7x7, partner max 10 µM) | 0.72 | 0.363 | 0.985 | – | 0.571 | 0.947 | 0.564 | 1 | 0.261 | 0.398 | 0.434 | 0.917 | – | 0.958 | 0.995 | 0.839 | 0.282 | 1 | -0.021 | 0.012 | 0.0596 | 0.0943 | 0.0382 | 0.0523 | 0.0035 | 0.0767 | -0.0638 | -0.0047 | 0.0003 | -0.0109 | -0.0253 | 0.0806 | 0.0352 | 0.0068 | -0.0519 | 0.0318
5 | N#Cc1cnc(Nc2cc(NC[C@H]3CNCCO3)c(C(F)(F)F)cn2)cn1 [SRA737] + C=CCn1c(=O)c2cnc(Nc3ccc(N4CCN(C)CC4)cc3)nc2n1-c1cccc(C(C)(C)O)n1 [AZD1775] (first compound max 10 µM, partner max 1 µM) | 0.42 | 0.352 | 0.817 | 0.253 | 0.877 | 0.306 | 0.673 | 0.916 | 0.706 | 0.67 | 0.66 | 0.426 | 0.366 | 0.836 | 0.865 | 0.824 | 0.789 | 0.823 | -0.101 | 0.0428 | 0.0952 | -0.0345 | 0.0962 | -0.0431 | 0.0355 | 0.0173 | 0.116 | 0.0425 | 0.0327 | 0.0147 | 0.0097 | 0.177 | 0.0534 | 0.11 | 0.0182 | 0.0773
6 | C=CCn1c(=O)c2cnc(Nc3ccc(N4CCN(C)CC4)cc3)nc2n1-c1cccc(C(C)(C)O)n1 [AZD1775] + CCc1c2c(nc3ccc(O)cc13)-c1cc3c(c(=O)n1C2)COC(=O)[C@]3(O)CC [SN-38] (first compound max 1 µM, partner max 0.3 µM) | 0.851 | 0.941 | 0.953 | 0.539 | 0.588 | 0.415 | 0.902 | 0.845 | 0.756 | 0.965 | 0.67 | 0.304 | 0.391 | – | 0.887 | 0.835 | 0.823 | 0.995 | -0.029 | -0.0838 | -0.0699 | -0.0452 | -0.0179 | -0.0501 | -0.0575 | -0.0839 | -0.0294 | 0.0811 | -0.108 | -0.0821 | -0.0007 | – | -0.017 | -0.0392 | -0.107 | -0.0663
7 | N#Cc1cnc(Nc2cc(NC[C@H]3CNCCO3)c(C(F)(F)F)cn2)cn1 [SRA737] + CCc1c2c(nc3ccc(O)cc13)-c1cc3c(c(=O)n1C2)COC(=O)[C@]3(O)CC [SN-38] (first compound max 10 µM, 7x7, partner max 0.3 µM) | 0.86 | 0.883 | 0.91 | – | 0.61 | 0.25 | 0.928 | 0.78 | 0.657 | 0.86 | 0.59 | 0.345 | 0.408 | 0.893 | 0.818 | 0.876 | 0.818 | 0.973 | -0.006 | -0.0712 | 0.0019 | -0.0679 | -0.0473 | -0.0041 | -0.0729 | -0.067 | 0.112 | 0.135 | -0.0295 | -0.0192 | -0.0739 | -0.0185 | -0.0347 | -0.0554 | -0.111 | -0.0016
8 | C[C@@H]1COCCN1c1cc(C2([S@](C)(=N)=O)CC2)nc(-c2ccnc3[nH]ccc23)n1 [AZD6738] + Nc1ccn([C@@H]2O[C@H](CO)[C@@H](O)C2(F)F)c(=O)n1 [Gemcitabine] (first compound max 10 µM, 7x7, partner max 0.3 µM) | 0.631 | 0.526 | 0.749 | 0.553 | 0.83 | 0.313 | 0.777 | 0.888 | 0.852 | 0.975 | 0.837 | 0.368 | 0.398 | 0.958 | 0.936 | 0.817 | 0.794 | 0.866 | 0.0682 | 0.0446 | -0.0523 | -0.0247 | 0.107 | 0.018 | 0.0071 | 0.0606 | 0.0818 | 0.128 | 0.0509 | -0.0525 | 0.0306 | -0.007 | 0.0857 | -0.0644 | -0.0837 | –
